From patent US7109338B2, “1,2-disubstituted 1,4-dihydro-4-oxoquinoline compounds” (priority 1999, dated 2006)
≈ marks a conversion by molar mass, not a printed value.

How the values were obtained:
HRV 89 (41617-Gallo) = assay: Anti-rhinovirus activity (MTT), HRV89; type: cell-based, human rhinovirus; conditions: HeLa (Ohio strain) cells, MTT method, 33° C.; for IC50: Human rhinovirus sp., HRV89, read-out: IC50 HRV89
[1] = system: Poliovirus type 1 (Polio 1, Sabin); assay: microbe, parasite or virus in culture; type: cell-based; conditions: for IC50: Enterovirus C, HeLa S3, read-out: IC50 Polio 1
[2] = system: echovirus type 11 (Echo 11, Gregory); assay: In vitro anti-picornavirus activity (MTT), Echo 11; type: cell-based; conditions: HeLa-S3 cells, MTT method, 37° C.; for IC50: Enterovirus B
HRV 2 (HGP) = assay: Anti-rhinovirus activity (MTT), HRV2; type: cell-based, human rhinovirus; conditions: HeLa (Ohio strain) cells, MTT method, 33° C.; for IC50: Human rhinovirus sp., HRV2, read-out: IC50 HRV2
HeLa (Ohio strain)cells = assay: Cytotoxicity (MTT, without virus), HeLa(Ohio); conditions: HeLa(Ohio), no virus, incubated for 4 days
[3] = system: coxsackievirus type A7 (CA7); assay: In vitro anti-picornavirus activity (MTT), CA7; type: cell-based; conditions: HeLa-S3 cells, MTT method, 37° C.; for IC50: Coxsackievirus
[4] = system: human rhinovirus type 1B (HRV 1B, B632); assay: Anti-rhinovirus activity (MTT), HRV1B; type: cell-based; conditions: HeLa (Ohio strain) cells, MTT method, 33° C.; for IC50: Human rhinovirus sp., HRV1B, read-out: IC50 HRV1B
HeLa-S3 cells = assay: Cytotoxicity (MTT, without virus), HeLa-S3; conditions: HeLa-S3, no virus, incubated for 4 days
[5] = system: coxsackievirus type B4 (CB4,JVB); assay: In vitro anti-picornavirus activity (MTT), CB4; type: cell-based; conditions: HeLa cells, MTT method, 37° C.; for IC50: Coxsackievirus
HeLa cells = assay: Cytotoxicity (MTT, without virus), HeLa; conditions: HeLa, no virus, incubated for 4 days
HRV14 (1059) = assay: Anti-rhinovirus activity (MTT), HRV14; type: cell-based, human rhinovirus; conditions: HeLa (Ohio strain) cells, MTT method, 33° C.; for IC50: Human rhinovirus sp., HRV14, read-out: IC50 HRV 14
HRV1A (E28) = assay: Anti-rhinovirus activity (MTT), HRV1A; type: cell-based, human rhinovirus; conditions: for IC50 HRV 1A: HeLa (Ohio strain) cells, MTT method, 33° C.; for IC50: Human rhinovirus sp., HRV1A, HeLa, read-out: IC50 HRV 1A

Compound | melting point | IC50 HRV89 (HRV 89 (41617-Gallo)) | IC50 Polio 1 [1] | IC50 Echo 11 [2] | IC50 HRV2 (HRV 2 (HGP)) | Cytotoxicity CC50 HeLa(Ohio) (HeLa (Ohio strain)cells) | IC50 CA7 [3] | IC50 HRV1B [4] | Cytotoxicity CC50 HeLa-S3 (HeLa-S3 cells) | IC50 CB4 [5] | Cytotoxicity CC50 HeLa (HeLa cells) | further results
CCOC(=O)c1c(-c2ccccc2)n(C)c2ccc(C(C)C)cc2c1=O | 164 to 165 °C | – | – | – | – | – | – | – | – | – | – | –
CCn1c2c(c(=O)c3cc(C(C)C)ccc31)C(N)c1ccccc1-2.Cl.Cl (stereo not shown) | 200 °C (dec.) | – | – | – | – | – | – | – | – | – | – | –
CCn1c2c(c(=O)c3cc(C(C)C)ccc31)C(NC(C)=O)c1ccccc1-2 (stereo not shown) | 215 °C (dec.) | – | – | – | – | – | – | – | – | – | – | –
CCn1c2c(c(=O)c3cc(C(C)C)ccc31)C(OC)(c1ccccc1)c1ccccc1-2 (stereo not shown) | 237 to 239 °C | – | – | – | – | – | – | – | – | – | – | –
CCn1c(-c2ccc(Br)s2)cc(=O)c2cc(C(C)C)ccc21 [Compound A317] | – | 0.40 µg/mL (≈ 1.06 µM) | 0.81 µg/mL (≈ 2.15 µM) | 0.35 µg/mL (≈ 0.93 µM) | 0.43 µg/mL (≈ 1.14 µM) | >5 µg/mL | 2.6 µg/mL (≈ 6.91 µM) | 0.82 µg/mL (≈ 2.18 µM) | >5 µg/mL | 1.1 µg/mL (≈ 2.92 µM) | >5 µg/mL | –
Cc1c(-c2cccs2)n(C)c2ccc(OCC(C)C)c(C)c2c1=O [Compound A318] | – | 0.16 µg/mL (≈ 0.469 µM) | 0.47 µg/mL (≈ 1.38 µM) | 0.27 µg/mL (≈ 0.791 µM) | 0.38 µg/mL (≈ 1.11 µM) | >2.5 µg/mL | 2.0 µg/mL (≈ 5.86 µM) | 0.45 µg/mL (≈ 1.32 µM) | >2.5 µg/mL | 0.65 µg/mL (≈ 1.9 µM) | >2.5 µg/mL | –
CCn1c(-c2nccs2)cc(=O)c2cc(C(C)C)ccc21 [Compound A319] | – | 2.0 µg/mL (≈ 6.7 µM) | 2.0 µg/mL (≈ 6.7 µM) | 0.81 µg/mL (≈ 2.71 µM) | 0.80 µg/mL (≈ 2.68 µM) | 32 µg/mL | 8.9 µg/mL (≈ 29.8 µM) | 1.5 µg/mL (≈ 5.03 µM) | >50 µg/mL | 9.4 µg/mL (≈ 31.5 µM) | 35 µg/mL | –
Cc1ccc(-n2c(-c3ccccc3)c(C)c(=O)c3cc(C(C)C)ccc32)cc1 [Compound A325] | – | 0.022 µg/mL (≈ 0.0599 µM) | >2.5 µg/mL | >2.5 µg/mL | 0.066 µg/mL (≈ 0.18 µM) | >2.5 µg/mL | >2.5 µg/mL | >2.5 µg/mL | >2.5 µg/mL | >2.5 µg/mL | >2.5 µg/mL | –
COc1ccc(-n2c(-c3ccccc3)c(C)c(=O)c3cc(C(C)C)ccc32)cc1 [Compound A326] | – | 0.067 µg/mL (≈ 0.175 µM) | >2.5 µg/mL | >2.5 µg/mL | 0.48 µg/mL (≈ 1.25 µM) | >2.5 µg/mL | >2.5 µg/mL | >2.5 µg/mL | >2.5 µg/mL | >2.5 µg/mL | >2.5 µg/mL | –
CCc1ccc2c(c1)Cc1c-2n(C)c2ccc(C(C)C)cc2c1=O [Compound B8] | – | 0.12 µg/mL (≈ 0.378 µM) | 0.19 µg/mL (≈ 0.599 µM) | 0.17 µg/mL (≈ 0.536 µM) | 0.22 µg/mL (≈ 0.693 µM) | >1 µg/mL | 0.70 µg/mL (≈ 2.21 µM) | 0.24 µg/mL (≈ 0.756 µM) | >1 µg/mL | 0.60 µg/mL (≈ 1.89 µM) | >1 µg/mL | IC50 HRV 14 (HRV14 (1059)): 0.40 µg/mL (≈ 1.26 µM); IC50 HRV 1A (HRV1A (E28)): >1 µg/mL
COc1ccc2c(c1)Cc1c-2n(C)c2ccc(CC(C)C)cc2c1=O [Compound B11] | – | 0.31 µg/mL (≈ 0.93 µM) | 0.45 µg/mL (≈ 1.35 µM) | 0.28 µg/mL (≈ 0.84 µM) | 0.34 µg/mL (≈ 1.02 µM) | >2 µg/mL | >2 µg/mL | 0.36 µg/mL (≈ 1.08 µM) | >2 µg/mL | 1.6 µg/mL (≈ 4.8 µM) | >2 µg/mL | IC50 HRV 14 (HRV14 (1059)): 0.78 µg/mL (≈ 2.34 µM); IC50 HRV 1A (HRV1A (E28)): 1.7 µg/mL (≈ 5.1 µM)
CCn1c2c(c(=O)c3cc(C(C)C)ccc31)C(C)c1ccccc1-2 (stereo not shown) [Compound C40, 5-Ethyl-8-isopropyl-11-methyl-5,10-dihydro-11H-indeno[1,2-b]quinolin-10-one] | 152 to 154 °C | – | – | – | – | – | – | – | – | – | – | IC50 (HRV 89 (41617-Gallo)): 0.56 µg/mL (≈ 1.76 µM); IC50 [1]: 0.54 µg/mL (≈ 1.7 µM); IC50 [2]: 0.24 µg/mL (≈ 0.756 µM); IC50 (HRV 2 (HGP)): 0.54 µg/mL (≈ 1.7 µM); IC50 [3]: > 3.3 µg/mL; IC50 [4]: 0.51 µg/mL (≈ 1.61 µM); IC50 (HRV14 (1059)): 1.1 µg/mL (≈ 3.47 µM); IC50 [5]: 1.7 µg/mL (≈ 5.36 µM); IC50 (HRV1A (E28)): > 3.3 µg/mL
CCn1c2c(c(=O)c3cc(C(C)C)ccc31)C(O)c1ccccc1-2 (stereo not shown) [Compound C43, 5-Ethyl-8-isopropyl-11-hydroxy-5,10-dihydro-11H-indeno[1,2-b]quinolin-10-one] | – | – | – | – | – | – | – | – | – | – | – | IC50 (HRV 89 (41617-Gallo)): 0.86 µg/mL (≈ 2.69 µM); IC50 [1]: 1.5 µg/mL (≈ 4.7 µM); IC50 [2]: 0.54 µg/mL (≈ 1.69 µM); IC50 (HRV 2 (HGP)): 0.67 µg/mL (≈ 2.1 µM); IC50 [3]: > 5 µg/mL; IC50 [4]: 1.5 µg/mL (≈ 4.7 µM); IC50 (HRV14 (1059)): 2.5 µg/mL (≈ 7.83 µM); IC50 [5]: 2.9 µg/mL (≈ 9.08 µM); IC50 (HRV1A (E28)): > 5 µg/mL
CCn1c2c(c(=O)c3cc(C(C)C)ccc31)C(=NOC)c1ccccc1-2 [Compound C49, 5-Ethyl-8-isoproypl-11-methoxyimino-5,10-dihydro-11H-indeno[1,2-b]quinolin-10-one] | – | 2.1 µg/mL (≈ 6.06 µM) | 0.52 µg/mL (≈ 1.5 µM) | 0.26 µg/mL (≈ 0.751 µM) | 1.7 µg/mL (≈ 4.91 µM) | – | 9.2 µg/mL (≈ 26.6 µM) | 1.9 µg/mL (≈ 5.48 µM) | – | 2.3 µg/mL (≈ 6.64 µM) | – | IC50 HRV 14 (HRV14 (1059)): 5.5 µg/mL (≈ 15.9 µM); IC50 HRV 1A (HRV1A (E28)): >10 µg/mL
